# Measured values from patent US12077503B2, “Substituted cyclic amides and their use as herbicides” (FMC CORPORATION, priority 2015, dated 2024).
# Key:
# Test in all cases: Test C preemergence
# Type in all cases: in vivo
# [1] = tested on: Galium (catchweed bedstraw, Galium aparine); settings: for Plant response rating, Galium: scale 0 to 100, 0 no effect, 100 complete control
# Procedure, shortened: (§1)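 Herbicidal effect, applied preemergence to sown seeds or postemergence to 1- to 4-leaf plants, was scored visually 13 to 15 d after application, 0 to 100 versus controls.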
# [2] = tested on: barnyardgrass (Echinochloa crus-galli); settings: for Plant response rating, Barnyardgrass: scale 0 to 100, 0 no effect, 100 complete control
# Procedure, shortened: as §1
# [3] = tested on: blackgrass (Alopecurus myosuroides); settings: for Plant response rating, Blackgrass: scale 0 to 100, 0 no effect, 100 complete control
# Procedure, shortened: as §1
# [4] = tested on: foxtail, giant (giant foxtail, Setaria faberii); settings: for Plant response rating, Foxtail, Giant: scale 0 to 100, 0 no effect, 100 complete control
# Procedure, shortened: as §1
# [5] = tested on: johnsongrass (Sorghum halepense); settings: for Plant response rating, Johnsongrass: scale 0 to 100, 0 no effect, 100 complete control
# Procedure, shortened: as §1
# [6] = tested on: oilseed rape (Brassica napus); settings: for Plant response rating, Oilseed Rape: scale 0 to 100, 0 no effect, 100 complete control
# Procedure, shortened: as §1
# [7] = tested on: ragweed (common ragweed, Ambrosia elatior); settings: for Plant response rating, Ragweed: scale 0 to 100, 0 no effect, 100 complete control
# Procedure, shortened: as §1
# soybean (Glycine max) = settings: for Plant response rating, Soybean: scale 0 to 100, 0 no effect, 100 complete control
# Procedure, shortened: as §1
# [8] = tested on: wheat (winter wheat, Triticum aestivum); settings: for Plant response rating, Wheat: scale 0 to 100, 0 no effect, 100 complete control
# Procedure, shortened: as §1
# [9] = 31 g ai/ha, 0 is no effect, 100 is complete control
structure (smiles),measurement,setting,value
"CN1C[C@H](c2ccc(C(F)(F)F)cc2)[C@@H](C(=O)Nc2ccccc2F)C1=O [Compound 622, (3S,4S)—N-(2-fluorophenyl)-1-methyl-2-oxo-4-[4-(trifluoromethyl)phenyl]-3-pyrrolidinecarboxamide]","Plant response rating (scale of 0 to 100), Galium",[1]; [9],80
same,"Plant response rating, Galium",[1]; 62 g ai/ha,90
same,"Plant response rating, Galium",[1]; 125 g ai/ha,90
same,"Plant response rating, Galium",[1]; 250 g ai/ha,90
same,"Plant response rating (scale of 0 to 100), Barnyardgrass",[2]; [9],90
same,"Plant response rating, Barnyardgrass",[2]; 62 g ai/ha,95
same,"Plant response rating, Barnyardgrass",[2]; 125 g ai/ha,90
same,"Plant response rating, Barnyardgrass",[2]; 250 g ai/ha,95
same,"Plant response rating (scale of 0 to 100), Blackgrass",[3]; [9],0
same,"Plant response rating, Blackgrass",[3]; 62 g ai/ha,0
same,"Plant response rating, Blackgrass",[3]; 125 g ai/ha,80
same,"Plant response rating, Blackgrass",[3]; 250 g ai/ha,85
same,"Plant response rating (scale of 0 to 100), Foxtail, Giant",[4]; [9],90
same,"Plant response rating, Foxtail, Giant",[4]; 62 g ai/ha,90
same,"Plant response rating, Foxtail, Giant",[4]; 125 g ai/ha,95
same,"Plant response rating, Foxtail, Giant",[4]; 250 g ai/ha,95
same,"Plant response rating (scale of 0 to 100), Johnsongrass",[5]; [9],25
same,"Plant response rating, Johnsongrass",[5]; 62 g ai/ha,60
same,"Plant response rating, Johnsongrass",[5]; 125 g ai/ha,50
same,"Plant response rating, Johnsongrass",[5]; 250 g ai/ha,65
same,"Plant response rating (scale of 0 to 100), Oilseed Rape",[6]; [9],60
same,"Plant response rating, Oilseed Rape",[6]; 62 g ai/ha,85
same,"Plant response rating, Oilseed Rape",[6]; 125 g ai/ha,85
same,"Plant response rating, Oilseed Rape",[6]; 250 g ai/ha,85
same,"Plant response rating (scale of 0 to 100), Ragweed",[7]; [9],45
same,"Plant response rating, Ragweed",[7]; 62 g ai/ha,70
same,"Plant response rating, Ragweed",[7]; 125 g ai/ha,85
same,"Plant response rating, Ragweed",[7]; 250 g ai/ha,85
same,"Plant response rating (scale of 0 to 100), Soybean",soybean (Glycine max); [9],0
same,"Plant response rating, Soybean",soybean (Glycine max); 62 g ai/ha,20
same,"Plant response rating, Soybean",soybean (Glycine max); 125 g ai/ha,85
same,"Plant response rating, Soybean",soybean (Glycine max); 250 g ai/ha,45
same,"Plant response rating (scale of 0 to 100), Wheat",[8]; [9],30
same,"Plant response rating, Wheat",[8]; 62 g ai/ha,40
same,"Plant response rating, Wheat",[8]; 125 g ai/ha,70
same,"Plant response rating, Wheat",[8]; 250 g ai/ha,80
